Results from patent US8614213B2 (Novartis AG, priority 2008, dated 2013).

Molecular target: human recombinant CRF-1 receptor (Homo sapiens (Human), UniProt P34998)
Test: CRF-1 receptor antagonism, HTRF cAMP assay in CHO cells in the presence of 1 nM CRF
Format: cell-based
Settings: CHO cells expressing human recombinant CRF-1
Description: The CRF-1 or CRF-2a receptor antagonistic activity of the agents of the invention has been determined in vitro in the following assay:
Chinese hamster ovary (CHO) cells expressing either the human recombinant CRF-1 or CRF-2a receptors (Chen et al., Proc Natl Acad Sci USA 90, 8967-8971, 1993; Liaw et al., Endocrinology 137, 72-77, 1996) are propagated in Dulbecco's modified Eagle medium supplemented with 10% foetal calf serum, non-essential amino acids, 100 U/ml penicillin, 100 mg/l streptomycin and 1 g/l geneticin (G418). For cyclic AMP determinations the Homogeneous Time-Resolved Fluoresce (HTRF) cAMP dynamic 2 kit (Cisbio International, France) was used as per manufacturers' instructions. CHO cells, previously cryopreserved, were thawed, centrifuged for 7 mins at 1200 rpm and resuspended in serum free media, then pipetted out onto clear bottomed black tissue culture treated 384-well microtitre plates (Corning Inc, US) at 2,000 cells per well. Compounds of the invention, prepared in DMSO, and subsequently diluted 50 fold in assay buffer (1× Hanks balanced salt solution, 0.2% (w/v) bovine serum albumin, 1.7 mM isobutylmethylxanthine and 10 mM Hepes, pH7.4) are then added onto the cell containing plate where a further 2 fold dilution is performed and incubated for 15 min. Following incubation, buffer containing a 5 times final concentration of agonist is added to the plate and incubated for 30 min. Finally, d2 dye labelled cAMP and cryptate labeled anti-cAMP antibody, both made in lysis buffer, are added to the plate followed by a settling period of 1 hour. During the settling period cAMP produced by the cells competes with the d2 labelled cAMP for the anti-cAMP cryptate. The plate is read on the Pherastar (BMG, Germany). […] Values represented by a change in arbitrary fluorescence units are converted into cAMP concentrations by use of a standard curve the reagents for which are supplied with the kit. […] IC50 values of antagonists are calculated by fitting the percent inhibition of the effect of CRF by increasing concentrations of the antagonists. […]

Sequence of human recombinant CRF-1 receptor (P34998 24-415): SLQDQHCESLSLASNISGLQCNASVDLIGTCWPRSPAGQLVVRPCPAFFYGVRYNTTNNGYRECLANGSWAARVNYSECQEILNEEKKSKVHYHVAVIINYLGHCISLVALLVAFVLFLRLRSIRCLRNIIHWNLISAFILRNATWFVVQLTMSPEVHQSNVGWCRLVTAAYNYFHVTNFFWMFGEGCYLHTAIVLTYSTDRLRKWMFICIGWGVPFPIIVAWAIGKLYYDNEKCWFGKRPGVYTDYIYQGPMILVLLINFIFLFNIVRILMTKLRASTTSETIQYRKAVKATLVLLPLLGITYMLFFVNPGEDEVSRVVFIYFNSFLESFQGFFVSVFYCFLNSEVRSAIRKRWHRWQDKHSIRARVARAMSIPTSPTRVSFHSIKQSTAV

Molecule `Cc1nn(C[C@H]2CC[C@H](NC(=O)c3cc(C(F)(F)F)ccc3Cl)CC2)c(C)c1C` [Example 21.11] has an IC50 of 140 nM.
With “2-Chloro-N-(2RS-methyl-4-phenylaminomethyl-cyclohexyl)-5-trifluoromethyl-benzamide [Example 16]” the IC50 was 51 nM.
`Cc1cc(N2CCNC2=O)nn1C[C@H]1CC[C@H](NC(=O)c2cc(C(F)(F)F)ccc2Cl)CC1` [Example 21.5, 2-Chloro-N-{4-[5-methyl-3-(2-oxo-imi-dazolidin-1-yl)-pyrazol-1-ylmethyl]-cyclohexyl}-5-trifluoromethyl-ben zamide] showed an IC50 of 157 nM.
